From ChEMBL document CHEMBL5260831, “Recent advance in oxazole-based medicinal chemistry” (Eur J Med Chem, 2018)
Values after ≈ are worked out from the molar mass of the structure shown.

Key:
[1] = molecular target: T1, Alpha-glucosidase (Saccharomyces cerevisiae S288c, UniProt P53341+P38158+P07265); experiment: Inhibition of yeast alpha-glucosidase using p-nitrophenyl-alpha-D-glucopyranoside as substrate by absorbance based analysis; type: protein assay
[2] = molecular target: T1, Alpha-glucosidase; experiment: Inhibition of yeast alpha-glucosidase using p-nitrophenyl-alpha-D-glucopyranoside as substrate; type: protein assay
[3] = test system: MCF7; experiment: Antiproliferative activity in human MCF7 cells assessed as cell growth inhibition; type: functional, cell-based
[4] = test system: A549; experiment: Antiproliferative activity in human A549 cells assessed as cell growth inhibition; type: functional, cell-based
[5] = test system: HeLa; experiment: Antiproliferative activity in human HeLa cells assessed as cell growth inhibition; type: functional, cell-based
[6] = test system: Rattus norvegicus; experiment: Anti-inflammatory activity against Carrageenan-induced paw edema in Wistar albino rat ulcerogenic activity relative to control; type: functional
[7] = test system: P388; experiment: Antiproliferative activity gainst mouse P388 cells assessed as cell growth inhibition; type: functional, cell-based
[8] = test system: Leishmania major; experiment: Leishmanicidal activity against Leishmania major JISH118 promastigote infected in human THP-1 macrophage cells assessed as reduction in […]; type: functional, organism-based; conditions: JISH118, THP-1
[9] = test system: HepG2; experiment: Antiproliferative activity in human HepG2 cells assessed as cell growth inhibition; type: functional, cell-based
[10] = test system: Rattus norvegicus; experiment: Anti-inflammatory activity against Carrageenan-induced paw edema in albino rat ulcerogenic activity at 20 mg/kg, po relative to control; type: functional
[11] = test system: Mycobacterium tuberculosis; experiment: Antimycobacterial activity against Mycobacterium tuberculosis H37Rv ATCC27294 assessed as inhibition of bacterial growth by agar dilution assay; type: functional
[12] = test system: HepG2; experiment: Antiproliferative activity in human HepG2 cells assessed as cell growth inhibition measured after 72 hrs by MTT assay; type: functional, cell-based; conditions: HepG2, 72 h
[13] = test system: A549; experiment: Antiproliferative activity in human A549 cells assessed as cell growth inhibition measured after 72 hrs by MTT assay; type: functional, cell-based; conditions: A549, 72 h
[14] = molecular target: Protein kinase C beta type (Homo sapiens, UniProt P05771); experiment: Inhibition of PKCB (unknown origin)
[15] = test system: Staphylococcus aureus; experiment: Antibiofilm activity against methicillin-sensitive Staphylococcus aureus ATCC 35556 assessed as inhibition of biofilm formation; type: functional
[16] = test system: Escherichia coli; experiment: Antibacterial activity against Escherichia coli assessed as bacterial growth inhibition by microdilution assay; type: functional
[17] = test system: Staphylococcus aureus; experiment: Antibacterial activity against Staphylococcus aureus assessed as bacterial growth inhibition by disc diffusion assay; type: functional
[18] = test system: Rattus norvegicus; experiment: Anti-inflammatory activity against Carrageenan-induced paw edema in rat ulcerogenic activity relative to control; type: functional
[19] = test system: Bacillus cereus; experiment: Antibacterial activity against Bacillus cereus MTCC 430 assessed as microbial growth inhibition measured after 24 hrs by paper disc diffusion technique; type: functional
[20] = test system: Pseudomonas aeruginosa; experiment: Antibacterial activity against Pseudomonas aeruginosa MTCC 741 assessed as microbial growth inhibition measured after 24 hrs by paper disc diffusion technique; type: functional
[21] = molecular target: Cannabinoid receptor 1 (Homo sapiens) (UniProt P21554); experiment: Binding affinity to CB1 receptor (unknown origin); conditions: filed as agonist
[22] = test system: Mycolicibacterium smegmatis; experiment: Antibacterial activity against Mycobacterium smegmatis mc2155ATCC-700084 assessed as bacterial growth inhibition measured after 18 hrs by microplate reader based analysis; type: functional
[23] = test system: MCF7; experiment: Antiproliferative activity in human MCF7 cells assessed as cell growth inhibition measured after 48 hrs by MTT assay; type: functional, cell-based; conditions: MCF7, 48 h
[24] = test system: A549; experiment: Antiproliferative activity in human A549 cells assessed as cell growth inhibition measured after 48 hrs by MTT assay; type: functional, cell-based; conditions: A549, 48 h
[25] = test system: A549; experiment: Antiproliferative activity in human A549 cells assessed as cell growth inhibition measured after 72 hrs by SRB assay; type: functional, cell-based; conditions: A549, 72 h
[26] = test system: A549; experiment: Antiproliferative activity in paclitaxel-resistant human A549 cells assessed as cell growth inhibition measured after 72 hrs by SRB assay; type: functional, cell-based; conditions: A549, 72 h
[27] = test system: HCT-116; experiment: Antiproliferative activity in human HCT-116 cells assessed as cell growth inhibition measured after 72 hrs by SRB assay; type: functional, cell-based; conditions: HCT-116, 72 h
[28] = test system: MDA-MB-231; experiment: Antiproliferative activity in human MDA-MB-231 cells assessed as cell growth inhibition measured after 72 hrs by SRB assay; type: functional, cell-based; conditions: MDA-MB-231, 72 h
[29] = test system: SK-HEP1; experiment: Antiproliferative activity in human SK-HEP1 cells assessed as cell growth inhibition measured after 72 hrs by SRB assay; type: functional, cell-based; conditions: SK-HEP1, 72 h
[30] = Antiproliferative activity in human SNU-601 cells assessed as cell growth inhibition measured after 72 hrs by SRB assay; type: functional, cell-based; conditions: SNU-601, 72 h

Sequence of Protein kinase C beta type (P05771 whole entry): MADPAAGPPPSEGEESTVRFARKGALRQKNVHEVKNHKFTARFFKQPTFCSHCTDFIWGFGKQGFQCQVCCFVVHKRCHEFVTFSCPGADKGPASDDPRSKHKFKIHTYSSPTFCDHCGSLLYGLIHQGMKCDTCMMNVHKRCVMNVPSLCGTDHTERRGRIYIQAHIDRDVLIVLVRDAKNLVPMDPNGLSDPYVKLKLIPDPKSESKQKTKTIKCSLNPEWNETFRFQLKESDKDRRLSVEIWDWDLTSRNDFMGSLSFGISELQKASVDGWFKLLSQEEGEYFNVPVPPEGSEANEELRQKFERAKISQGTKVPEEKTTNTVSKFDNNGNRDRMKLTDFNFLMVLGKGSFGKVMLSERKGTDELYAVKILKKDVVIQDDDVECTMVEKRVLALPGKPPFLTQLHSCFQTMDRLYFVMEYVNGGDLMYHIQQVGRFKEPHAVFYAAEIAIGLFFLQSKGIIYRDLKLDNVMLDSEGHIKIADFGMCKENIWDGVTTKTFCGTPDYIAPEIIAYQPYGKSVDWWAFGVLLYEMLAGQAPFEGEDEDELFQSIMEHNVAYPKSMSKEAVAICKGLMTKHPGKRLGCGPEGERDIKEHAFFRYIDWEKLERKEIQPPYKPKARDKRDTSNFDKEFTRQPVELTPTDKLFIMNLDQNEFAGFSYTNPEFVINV
Sequence of Cannabinoid receptor 1 (Homo sapiens) (P21554 whole entry): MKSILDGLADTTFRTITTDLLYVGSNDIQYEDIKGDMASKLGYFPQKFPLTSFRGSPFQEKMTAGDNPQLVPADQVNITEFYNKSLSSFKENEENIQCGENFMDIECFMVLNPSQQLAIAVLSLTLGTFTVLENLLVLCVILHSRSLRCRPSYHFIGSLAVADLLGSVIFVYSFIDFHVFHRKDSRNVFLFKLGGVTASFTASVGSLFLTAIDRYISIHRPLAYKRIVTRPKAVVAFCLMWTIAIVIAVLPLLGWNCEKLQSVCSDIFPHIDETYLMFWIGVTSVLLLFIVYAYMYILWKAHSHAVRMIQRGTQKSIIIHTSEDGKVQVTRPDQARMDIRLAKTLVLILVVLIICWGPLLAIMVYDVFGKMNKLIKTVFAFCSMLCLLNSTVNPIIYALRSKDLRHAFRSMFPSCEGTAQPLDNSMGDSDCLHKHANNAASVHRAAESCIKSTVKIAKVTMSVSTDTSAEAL

## O=[N+]([O-])c1ccc2cc(-c3nnc(-c4ccccc4F)o3)oc2c1
[1]
  IC50: 12.75 µM
[2]
  IC50: 2 µM

## Cc1ncc(-c2cccnc2)o1
[3]
  IC50: 4.6 µM
[4]
  IC50: 4.6 µM
[5]
  IC50: 4.6 µM

## Clc1ccccc1-c1nnc(Cn2c(CN3CCOCC3)nc3ccccc32)o1
[6]
  inhibition (INH): 74.17%

## CCC[C@@H]1NC(=O)C2C[C@H](C)CN2C(=O)[C@@H](NC=O)CNC(=O)[C@H](CSSC[C@@H]2NC(=O)c3coc(n3)[C@H](C)NC(=O)C(=O)[C@H](CCC)NC(=O)C3C[C@H](C)CN3C(=O)[C@@H](NC=O)CNC2=O)NC(=O)c2coc(n2)[C@H](C)NC(=O)C1=O (stereo partly specified)
[7]
  IC50: 0.83 µM

## O=C(NNC(=S)c1ccc(C(F)(F)F)cc1)c1ccc(-c2nnc(-c3ccc4ncccc4c3)o2)cc1
[8]
  IC50: 0.1 µM

## Cc1ncc(-c2cnc3ccccc3c2)o1
[3]
  IC50: 4.6 µM
[4]
  IC50: 4.6 µM
[5]
  IC50: 4.6 µM

## CC(=O)Oc1ccccc1C1OC(c2ccncc2)=NN1C(C)=O (stereo unspecified)
[3]
  IC50: 50 µM
[9]
  IC50: 50 µM

## O=C(CCN1CCN(c2ccc([N+](=O)[O-])cc2)CC1)Nc1ccc2oc(Cc3ccc(Cl)cc3)nc2c1
[10]
  inhibition in vivo at 20 mg/kg: 81.7%

## Cc1nnc(-c2cc(-c3ccc(Cl)cc3)n(-c3ccc(NC(=O)c4ccccc4)cc3)n2)o1
[11]
  MIC: 3.13 µg/mL (≈ 6.87 µM)

## O=[N+]([O-])c1ccccc1-c1nc(-c2ccccc2)co1
[12]
  IC50: 56.5 µM

## COc1ccc(-c2cc(-c3nnc(C)o3)nn2-c2ccc(NC(=O)c3ccc(F)cc3)cc2)cc1
[11]
  MIC: > 50 µg/mL

## CO[C@@H]1[C@H](N(C)c2ncc(-c3c[nH]c4ccccc34)o2)C[C@H]2C[C@]1(C)n1c3ccccc3c3c4c(c5c6ccccc6n2c5c31)C(=O)NC4
[13]
  IC50: 0.45 µM
[14]
  IC50: 0.5 µM

## O=[N+]([O-])c1ccc2cc(-c3nnc(-c4ccc(O)cc4O)o3)oc2c1
[1]
  IC50: 12.75 µM
[2]
  IC50: 2 µM

## Cn1c(-c2nnc(-c3cc(Br)c(Br)[nH]3)o2)cc(Br)c1Br
[15]
  MBIC: 0.78 µg/mL

## COc1ccc(-c2nnc(SCCSc3nnc(-c4c[nH]c5ccccc45)n3N)o2)cc1
[16]
  MIC: 2 µg/mL
[17]
  MIC: 2 µg/mL (≈ 4.3 µM)

## COc1cc(-c2nnc(SCC(=O)Nc3ccc(/C(C)=N/O)cc3)o2)cc(OC)c1OC
[18]
  inhibition (INH): 96.67%

## COc1ccc(-c2nnc(-c3cc(Br)c(Br)n3C)o2)cc1
[15]
  MBIC: 0.78 µg/mL

## Nc1ccc(-c2nnc(SCCSc3nnc(-c4c[nH]c5ccccc45)n3N)o2)cc1
[16]
  MIC: 2 µg/mL
[17]
  MIC: 2 µg/mL (≈ 4.44 µM)

## CC(=O)Oc1ccc(-c2nc(-c3ccccc3)co2)cc1
[12]
  IC50: 16.6 µM

## COc1ccc(-c2cc(-c3nnc(C)o3)nn2-c2ccc(NC(=O)c3ccccc3)cc2)cc1
[11]
  MIC: > 50 µg/mL

## CN[C@H](CC(C)C)C(=O)N[C@H]1C(=O)N[C@@H](CC(N)=O)C(=O)N[C@H]2C(=O)N[C@H]3C(=O)N[C@H](C(=O)N[C@H](C(=O)O)c4cc(O)cc(O)c4-c4cc3ccc4O)[C@H](O)c3ccc(c(Cl)c3)Oc3cc2cc(c3O[C@@H]2O[C@H](CO)[C@@H](O)[C@H](O)[C@H]2O[C@H]2C[C@](C)(N)[C@H](O)[C@H](C)O2)Oc2ccc(cc2Cl)[C@H]1O [VANCOMYCIN]
[15]
  MBIC: 3.125 µg/mL

## O=c1cc(Nc2ccc(-c3cc(-c4ccc(Cl)cc4Cl)on3)cc2)c2ccccc2o1
[19]
  MIC: 12.5 µg/mL (≈ 27.8 µM)
[20]
  MIC: 12.5 µg/mL (≈ 27.8 µM)

## Cc1nnc(-c2cc(-c3ccc(Cl)cc3)n(-c3ccc(NC(=O)c4ccccc4Cl)cc3)n2)o1
[11]
  MIC: 1.56 µg/mL (≈ 3.18 µM)

## CO[C@@H]1[C@H](N(C)c2ncc(-c3ccccc3)o2)C[C@H]2C[C@]1(C)n1c3ccccc3c3c4c(c5c6ccccc6n2c5c31)C(=O)NC4
[13]
  IC50: 0.75 µM
[14]
  IC50: 0.5 µM

## Cc1ncc(-c2ccc3ccccc3c2)o1
[3]
  IC50: 4.6 µM
[4]
  IC50: 4.6 µM
[5]
  IC50: 4.6 µM

## Cn1c(-c2nnc(-c3ccc(Cl)cc3)o2)cc(Br)c1Br
[15]
  MBIC: 0.78 µg/mL

## c1ccc(Cc2noc(-c3cn(CCN4CCCC4)c4ccccc34)n2)cc1
[21]
  pKb: 7.2

## C/C=C(C)\C=C(/C)[C@@H](O)[C@H](C)[C@@H](O)[C@@H]1OC(=O)/C(CCCCCC)=C/c2coc(n2)[C@H](C)[C@@H](O)C[C@H](O)/C=C/C=C\C[C@@H]1O
[22]
  MIC: 64 µg/mL (≈ 104 µM)

## CC1=NN(c2ccccc2)C(=O)/C1=N/Nc1cccc(-c2nc3ccccc3o2)c1
[23]
  IC50: 17 µM
[24]
  IC50: 15.5 µM

## Cn1c(-c2nnc(-c3ccc(Cl)cc3Cl)o2)cc(Br)c1Br
[15]
  MBIC: 0.39 µg/mL

## C/C=C(C)/C=C(\C)[C@@H](O)[C@H](C)[C@@H](O)[C@H](O)[C@@H]1C/C=C\C=C\[C@@H](O)C[C@H](O)[C@@H](C)c2nc(cs2)/C=C(\CCCCCC)C(=O)O1
[22]
  MIC: 16 µg/mL (≈ 25.3 µM)

## Brc1ccccc1-c1nc(-c2ccccc2)co1
[12]
  IC50: 16.9 µM

## C/C=C(C)/C=C(\C)[C@@H](O)[C@H](C)[C@@H](O)[C@@H]1OC(=O)/C(CCCCCC)=C/c2coc(n2)[C@H](C)[C@@H](O)C[C@H](O)/C=C/C=C\C[C@@H]1O
[22]
  MIC: 64 µg/mL (≈ 104 µM)

## O=[N+]([O-])c1ccc2cc(-c3nnc(-c4cccc(O)c4O)o3)oc2c1
[1]
  IC50: 12.75 µM
[2]
  IC50: 2 µM

## COC(CC1OC(=O)CC(O)C/C=C/C(=O)C(C)C(OC)c2coc(n2)-c2coc(n2)-c2coc(n2)/C=C\CCC1C)C(C)CCC(=O)C(C)C(C/C=C/N(C)C=O)OC (stereo unspecified)
[25]
  IC50: 0.024 µM
[26]
  IC50: 0.022 µM
[27]
  IC50: 0.073 µM
[28]
  IC50: 0.04 µM
[29]
  IC50: 0.08 µM
[30]
  IC50: 0.107 µM
